Measurements reported in ChEMBL document CHEMBL1145548, “Selective plasma protein binding of antimalarial drugs to alpha1-acid glycoprotein” (Bioorg Med Chem, 2008).

Experiments:
Albumin [1] = molecular target: T1, Albumin (Homo sapiens, UniProt P02768); experiment: Binding affinity to human serum albumin on sepharose column by affinity chromatography; type: ADME; conditions: isolated protein
Homo sapiens [2] = species on record: Homo sapiens; experiment: Displacement of quinaldine red from human AAG by fluorescence method
[3] = molecular target: Alpha-1-acid glycoprotein 1 (Homo sapiens, UniProt P02763); experiment: Binding affinity to human ORM1 at 37 degC by induced circular dichroism method
Sequence of Alpha-1-acid glycoprotein 1 (P02763 whole entry): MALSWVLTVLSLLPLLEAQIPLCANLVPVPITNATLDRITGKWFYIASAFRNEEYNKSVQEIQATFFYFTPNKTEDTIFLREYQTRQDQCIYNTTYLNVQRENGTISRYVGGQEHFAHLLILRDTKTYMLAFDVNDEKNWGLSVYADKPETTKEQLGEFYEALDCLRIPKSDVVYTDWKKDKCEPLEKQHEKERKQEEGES

[4] = molecular target: Alpha-1-acid glycoprotein 2 (Homo sapiens, UniProt P19652); experiment: Binding affinity to human ORM2 at 37 degC by induced circular dichroism method
Sequence of Alpha-1-acid glycoprotein 2 (P19652 whole entry): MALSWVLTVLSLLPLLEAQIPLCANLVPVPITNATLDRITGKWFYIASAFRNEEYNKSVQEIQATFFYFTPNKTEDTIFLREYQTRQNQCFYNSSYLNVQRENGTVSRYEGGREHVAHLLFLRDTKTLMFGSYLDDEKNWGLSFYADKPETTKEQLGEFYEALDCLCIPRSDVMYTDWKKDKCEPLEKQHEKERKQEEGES

Albumin [5] = molecular target: T1, Albumin; experiment: Binding affinity to human serum albumin by circular dichroism and UV/VIS spectroscopic method; type: ADME; conditions: isolated protein
Homo sapiens [6] = species on record: Homo sapiens; experiment: Binding affinity to human AAG at 23 degC by induced circular dichroism method
Homo sapiens [7] = species on record: Homo sapiens; experiment: Binding affinity to human AAG at 37 degC by induced circular dichroism method
Homo sapiens [8] = species on record: Homo sapiens; experiment: Binding affinity to human AAG by fluorescence emission spectra
Albumin [9] = molecular target: T1, Albumin; experiment: Binding affinity to human serum albumin by fluorescence emission spectra; type: ADME; conditions: isolated protein

T1 sequence (P02768 whole entry): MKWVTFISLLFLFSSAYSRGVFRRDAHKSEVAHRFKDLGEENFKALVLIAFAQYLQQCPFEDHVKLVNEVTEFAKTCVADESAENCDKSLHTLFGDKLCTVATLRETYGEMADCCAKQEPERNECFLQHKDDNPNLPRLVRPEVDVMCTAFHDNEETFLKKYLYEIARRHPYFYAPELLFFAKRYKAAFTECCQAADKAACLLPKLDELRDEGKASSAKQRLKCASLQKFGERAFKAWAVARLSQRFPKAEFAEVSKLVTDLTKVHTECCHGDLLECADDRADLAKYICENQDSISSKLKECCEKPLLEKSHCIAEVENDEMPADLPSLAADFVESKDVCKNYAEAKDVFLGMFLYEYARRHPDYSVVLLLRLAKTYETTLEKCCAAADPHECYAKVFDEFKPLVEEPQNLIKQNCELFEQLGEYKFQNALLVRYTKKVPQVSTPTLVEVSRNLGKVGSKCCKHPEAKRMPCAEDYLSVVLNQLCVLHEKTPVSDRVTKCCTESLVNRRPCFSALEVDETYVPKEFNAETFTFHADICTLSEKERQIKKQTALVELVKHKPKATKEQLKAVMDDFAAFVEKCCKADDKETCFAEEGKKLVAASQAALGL

| Compound | Ka (Albumin [1]) | Ka (Homo sapiens [2]) | also measured |
| --- | --- | --- | --- |
| CCN(CC)CCCC(C)Nc1ccnc2cc(Cl)ccc12 (stereo not given) [CHLOROQUINE] | 2 10^3/M | 0.3 10^5/M | – |
| CCN(CC)Cc1cc(Nc2ccnc3cc(Cl)ccc23)ccc1O.Cl.Cl.Cl | – | – | Ka [3]: 5.8 10^4/M |
| CC(=O)O[C@H]1N=C(c2ccccc2Cl)c2cc(Cl)ccc2NC1=O | 2 10^4/M | – | – |
| CCN(CC)CCCC(C)Nc1c2ccc(Cl)cc2nc2ccc(OC)cc12.Cl.Cl (stereo not given) [QUINACRINE DIHYDROCHLORIDE] | – | – | Ka [4]: 3.7 10^5/M |
| CC(=O)O[C@@H]1N=C(c2ccccc2)c2cc(Cl)ccc2NC1=O | 8 10^4/M | – | – |
| COc1cc(NC(C)CCCN)c2ncccc2c1 (stereo not given) [PRIMAQUINE] | 7 10^3/M | – | – |
| COc1cc(NC(C)CCCN)c2ncccc2c1.O=P(O)(O)O.O=P(O)(O)O (stereo not given) [PRIMAQUINE PHOSPHATE] | – | – | Ka [3]: 8 10^5/M |
| COc1cc(C)c2c(Oc3cccc(C(F)(F)F)c3)c(OC)cc(NC(C)CCCN)c2n1 (stereo not given) [TAFENOQUINE] | 3 10^5/M | 1.8 10^6/M | Ka (Albumin [5]): 24000 M⁻¹; Ka (Homo sapiens [6]): 1.1 10^6/M; Ka (Homo sapiens [7]): 3.3 10^5/M; Ka (Homo sapiens [8]): 1.6 10^6/M; Ka (Albumin [9]): 3 10^5/M |
| CC#C[C@]1(O)CC[C@H]2[C@@H]3CCC4=CC(=O)CCC4=C3[C@@H](c3ccc(N(C)C)cc3)C[C@@]21C | – | 4 10^6/M | – |
| CCN(CC)Cc1cc(Nc2ccnc3cc(Cl)ccc23)ccc1O | – | 1.1 10^5/M | Ka (Homo sapiens [7]): 4.8 10^4/M |
| OC(c1cc(C(F)(F)F)nc2c(C(F)(F)F)cccc12)C1CCCCN1 (stereo not given) [MEFLOQUINE] | 8 10^4/M | 8.7 10^5/M | – |
| CN(C)CCCN1c2ccccc2Sc2ccc(Cl)cc21 | – | 8.4 10^5/M | – |
| CC(=O)O[C@H]1N=C(c2ccccc2)c2cc(Cl)ccc2NC1=O | 1 10^4/M | – | – |
| CCN(CC)Cc1cc(Nc2ccnc3cc(Cl)ccc23)ccc1O.Cl | 2 10^4/M | – | Ka (Albumin [5]): 6200 M⁻¹ |
| CC(=O)O[C@@H]1N=C(c2ccccc2Cl)c2cc(Cl)ccc2NC1=O | 4 10^4/M | – | – |
| CCN(CC)CCCC(C)Nc1c2ccc(Cl)cc2nc2ccc(OC)cc12 (stereo not given) | – | – | Ka (Homo sapiens [7]): 2.3 10^5/M |
| CCN(CC)CCCC(C)Nc1c2ccc(Cl)cc2nc2ccc(OC)cc12 (stereo not given) [QUINACRINE] | 7 10^3/M | – | – |
| CC(C)NCC(O)COc1cccc2ccccc12 (racemic) | – | 1.5 10^5/M | – |
| COc1cc(NC(C)CCCN)c2ncccc2c1 (stereo not given) | – | 4.2 10^5/M | Ka (Homo sapiens [7]): 4.1 10^5/M |
